Key:
Type in all cases: biochemical
[1] = target: T1, E. coli cysteine desulfurase (Escherichia coli, UniProt P0A6B7, P222S); test: Anti-interference of the detection method for D-serine, cycloserine and serine derivatives
T1 construct: C-terminal histidine stretch (HHHHHH); made in house; host or cells: E. coli (IscA-/SufA- double-deficient strain is mentioned in the summary)

[2] = target: T1, E. coli cysteine desulfurase; test: Determination of the ability to resist other L-amino acids (colour after incubation with enzyme); settings: 4 mM amino acid, equal volume of enzyme, 37° C., 250 rpm, 2 h, naked eye
[3] = target: T1, E. coli cysteine desulfurase; test: Quantitative detection of L-serine, absorbance at 528 nm (reaction time and linear range); settings: L-serine standard with reaction buffer, 25° C.
Description: B. Reaction buffer: 40 mM Tris-HCl buffer (pH 9.0), 100 μM E. coli cysteine desulfurase, and 0.4 mM L-cysteine.
L-serine to be tested was mixed with the reaction buffer in equal volumes, and incubated at 25° ° C. for different times; the absorbance was measured at a wavelength of 528 nm; a curve was plotted with the time as the horizontal axis and the absorbance value at 528 nm as the longitudinal axis.
The L-serine standard solution was diluted to three concentrations, respectively: 0.50 mM, 1.00 mM, and 2.00 mM. Each serial dilution of the standard solution and the unknown sample (100 μL) were each mixed with 100 μL of reaction buffer, incubated at room temperature (25° C.) for 2 h, and the absorbance at 528 nm was measured for sample and standard tubes, respectively.
A standard curve was plotted with the concentration of the standard solution as the abscissa and the absorbance measured at a wavelength of 528 nm as the ordinate, and the curve was fitted to obtain a curve equation and an R^2 value.

| Compound | anti-interference ability of the detection method [1] | colour after incubation with E. coli cysteine desulfurase [2] | incubation time at which the absorption peak at 528 nm reaches the highest [3] [h] |
| --- | --- | --- | --- |
| N[C@H](CO)C(=O)O [D-serine] | good anti-interference ability |  |  |
| N[C@@H](CO)C(=O)O [L-serine] |  | red | 2 |
| N[C@@H]1CON=C1O [cycloserine] | good anti-interference ability |  |  |
